Paper PMC10226046, “Prodrug Strategies for the Development of β-L-5-((E)-2-Bromovinyl)-1-((2S,4S)-2-(hydroxymethyl)-1,3-(dioxolane-4-yl))uracil (L-BHDU) against Varicella Zoster Virus (VZV)” (Journal of Medicinal Chemistry, 2023)
pEC50: −log10 of the molar value. Where two headings read alike, the source gives them in different places.

Experiments:
VZV-ORF57-Luc [1] = assay: microbe, parasite or virus in culture; type: cell-based, Varicella zoster virus; conditions: Human alphaherpesvirus 3, ARPE-19
VZV-ORF57-ΔTK = assay: microbe, parasite or virus in culture; type: cell-based, Varicella zoster virus; conditions: Human alphaherpesvirus 3, ARPE-19
VZV-ORF57-ΔTS = assay: microbe, parasite or virus in culture; type: cell-based, Varicella zoster virus; conditions: Human alphaherpesvirus 3, ARPE-19
VZV-ORF57-ΔTKTS = assay: microbe, parasite or virus in culture; type: cell-based, Varicella zoster virus; conditions: Human alphaherpesvirus 3, ARPE-19
[2] = Oral pharmacokinetic absorption study in BALB/c mice (plasma, LC-MS/MS); type: in vivo; conditions: both sexes, mouse, analyte L-BHDU in plasma, 11.4 mg/kg L-BHDU oral, BALB/c mice
Procedure: A pharmacokinetic absorption study was performed in BALB/c mice (Charles River). A single equimolar dose of 22.5 mg/kg POM-L-BHDU-MP or 11.4 mg/kg L-BHDU was dissolved in Cremophor–dimethyl sulfoxide (DMSO)–saline (1:1:8) and administered by oral gavage to two groups of mice with equal numbers of male and female mice (N = 15 each male and female).
Plasma was separated from red blood cells and immediately frozen at −80 °C.
This animal protocol #282 was approved by the IACUC at SUNY Upstate Medical University, which has been fully accredited by AAALAC since 7/31/1999. This method was previously used to evaluate L-BHDU effects on 5-fluorouracil metabolism.[16] Briefly, a single equimolar dose of 22.5 mg/kg POM-L-BHDU-MP or 11.4 mg/kg L-BHDU was dissolved in Cremophor–DMSO–saline (1:1:8) and administered by oral gavage to two groups of BALB/c mice (Charles River) with equal numbers of male and female mice (N = 15 each male and female). Six untreated mice were used for blank controls and were labeled time 0. At 20, 40, 60, and 120 min, three mice from the POM-L-BHDU-MP group and three mice from the L-BHDU group were anesthetized with inhaled isoflurane and then exsanguinated by cardiac puncture. Blood samples were collected into a tube containing heparin. Plasma was separated from red blood cells by centrifugation at 10,000 rpm for 5 min. Plasma was transferred to a new tube and immediately frozen at −80 °C.
Plasma samples were thawed, and exactly 0.95 mL was removed for analysis. The internal standard azidothymidine was added to mouse plasma samples at a final concentration of 20 ng/mL. Proteins were precipitated from the plasma by adding 2× volumes of methanol, then the samples were clarified by centrifugation. The supernatants were dried using an N-EVAP 116 analytical nitrogen evaporator and then reconstituted with 50% methanol in water. LC-MS/MS was used to analyze the concentrations of POM-L-BHDU-MP, L-BHDU, and L-BHDU-MP. Calibration curves were made using BALB/c mouse plasma (Innovative Research, Inc. Novi MI) prior to analyzing the experimental samples.
The primary stock solutions for the calibration were prepared at 0.5 mg/mL for L-BHDU, 1 mg/mL for POM-L-BHDU-MP, and 1 mg/mL for L-BHDU-MP. The primary stock solutions were diluted to working solutions that were in turn used to spike the biological matrix of interest. L-BHDU calibration points were 100.0, 400.0, 800.0, 1000.0, 4000.0, 6000.0, 8000.0, 10,000.0, and 12,000.0 ng/mL. L-BHDU-MP calibration points were 100.0, 200.0, 400.0, 800.0, 1000.0, 2000.0, 4000.0, 6000.0, and 8000.0 ng/mL. The ISTD working solution of AZT was prepared at 20 ng/mL. The standard stock solutions were stored in −80 °C freezer until used. […] The samples were analyzed in a negative ESI mode. […]

VZV-ORF57-Luc [3] = tested on: VZV-ORF57-Luc
[4] = tested on: human foreskin fibroblasts (HFFs); set-up: method as in PMID 25051026; conditions: cited from earlier work
VZV [5] = conditions: 15 mg/kg/day, SCID-hu mouse with human fetal skin xenografts; cited from earlier work
[6] = set-up: method as in PMID 25051026; conditions: measured in various mouse organs; cited from earlier work
[7] = set-up: method as in PMID 25051026; conditions: mice treated with L-BHDU; cited from earlier work
[8] = mouse, in vivo; cited from earlier work
VZV-ORF57-Luc [9] = assay: microbe, parasite or virus in culture; conditions: Human alphaherpesvirus 3, ARPE-19, cell-free VZV-ORF57-Luc, ARPE-19 cells, 72 hpi, bioluminescence imaging
[10] = Neutral red dye uptake cytotoxicity assay in ARPE-19 cells; conditions: human
VZV [11] = tested on: VZV; set-up: method as in PMID 25051026; conditions: VZV in human foreskin fibroblasts (HFFs); cited from earlier work
[12] = selectivity index = CC50/EC50, ARPE-19 cells

Row | SMILES | pEC50 (VZV-ORF57-Luc [1]) | pEC50 (VZV-ORF57-ΔTK) | pEC50 (VZV-ORF57-ΔTS) | pEC50 (VZV-ORF57-ΔTKTS) | Cmax at 2 h [2] [ng/mL] | Tmax at 2 h [2] [h] | AUC at 2 h ([2]; 0 to 120 min) [ng·h/mL] | SI (CC50/EC50) (VZV-ORF57-Luc [3]) | SI (CC50/EC50) (VZV-ORF57-Luc [3]; [12]) | not cytotoxic up to ([4]; HFFs) | effect on VZV replication (VZV [5]) | brain penetration [6] | 5-FU accumulation in treated mice [7] | well tolerated up to (dose) [8] | pEC50 (VZV-ORF57-Luc [9]) | CC50 at 72 h [10] [nM] | pEC50 (VZV-ORF57-Luc [3]; cell-free VZV-ORF57-Luc, ARPE-19 cells, 72 hpi, bioluminescence imaging) | SI (CC50/EC50) (VZV-ORF57-Luc [3]; selectivity index = CC50/EC50, ARPE-19 cells, listed as 17) | pEC50 (VZV [11]) | CC50 [4] [nM]
1 | O=c1[nH]c(=O)n([C@@H]2CO[C@H](CO)O2)cc1/C=C/Br [L-BHDU (1), β-L-5-((E)-2-bromovinyl)-1-((2S,4S)-2-(hydroxymethyl)-1,3-(dioxolane-4-yl))uracil] | 6.74 | < 5.70 | 7.55 | < 5.70 | 7100 | 2 | 12700 | >3878 | >3878 | up to 200 μM | effectively reduced VZV replication | did not penetrate the brain | did not accumulate | up to 150 mg/kg | 7.59 | > 100000 | – | – | – | –
2 | CC(C)[C@@H](N)C(=O)OC[C@H]1OC[C@@H](n2cc(/C=C/Br)c(=O)[nH]c2=O)O1.Cl [L-BHDU-L-valine (17), L-BHDU-5′-O-L-valyl Ester Hydrochloride] | – | – | – | – | – | – | – | >3322 | >3322 | – | – | – | – | – | 7.52 | > 100000 | 7.52 | > 3322 | 7.52 | > 200000
